Test results from patent US8722682B2, “Sulfated benzimidazolone derivatives having mixed serotonin receptor affinity” (Sprout Pharmaceuticals, Inc., priority 2006, dated 2014).

Columns and labels:
5-HT1A receptor = biological target: T1, 5-HT1A receptor (Homo sapiens, UniProt P08908); assay: 5-HT1A receptor binding, [3H]-8-OH-DPAT displacement; details: human recombinant CHO-K1 cells, [3H]-8-OH-DPAT 1.5 nM
T1 construct: expressed in transfected cells; host or cells: CHO-K1
T1 sequence (P08908 1-422): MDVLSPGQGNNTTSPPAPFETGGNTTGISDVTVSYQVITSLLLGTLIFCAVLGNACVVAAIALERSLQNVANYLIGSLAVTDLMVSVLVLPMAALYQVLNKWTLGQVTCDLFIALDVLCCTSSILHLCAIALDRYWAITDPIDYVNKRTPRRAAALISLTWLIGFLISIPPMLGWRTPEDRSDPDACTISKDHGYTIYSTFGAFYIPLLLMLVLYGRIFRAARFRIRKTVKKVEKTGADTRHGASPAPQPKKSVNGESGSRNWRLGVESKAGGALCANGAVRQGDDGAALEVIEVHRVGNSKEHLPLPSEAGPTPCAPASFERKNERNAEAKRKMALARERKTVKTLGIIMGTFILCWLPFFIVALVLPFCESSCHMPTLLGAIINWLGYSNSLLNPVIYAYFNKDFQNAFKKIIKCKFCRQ
Method: (§1) Binding studies can be carried out to determine the affinity of the compounds for 5-HT1A and 5-HT2A receptors
Human recombinant CHO-K1 cells are used. Displacement experiments can be performed by incubating the cells in 50 mM Tris-HCL, pH 7.4, 0.1% ascorbic acid, 0.5 mM EDTA, 10 mM MgSo4 and in the presence of [^3H]-8-OH-DPAT (1.5 nM) at 27° C. for 60 min. Non specific binding was determined in the presence of 10 μM mertergoline.
The test compounds dissolved in DMSO, along with the positive control compound metergoline are tested over 10-log unit concentrations for their ability to compete for [^3H]8-OH-DPAT binding (May J A, et al., J Pharmacol Exp Ther. 306(1):301, 2003. Martin G R and Humphrey P P A Neuropharmacol. 33:261, 1994). […] The radioactivity is counted on a β-counter, and the data are analyzed by a nonlinear, iterative, curve-fitting computer program.
Where presented, IC50 values are determined by a non-linear, least squares regression analysis using Data Analysis Toolboxä (MDL Information Systems, San Leandro, Calif., USA). Where inhibition constants (Ki) are presented, the Ki values are calculated using the equation of Cheng and Prusoff (Cheng, Y., Prusoff, W. H., Biochem. Pharmacol. 22:3099-3108, 1973) using the observed IC50 of the tested compound, the concentration of radioligand employed in the assay, and the historical values for the Ki of the ligand).

5-HT2A receptor = biological target: T2, 5-HT2A receptor (Homo sapiens, UniProt P28223); assay: 5-HT2A receptor binding, [3H]-Ketanserin displacement; details: human recombinant CHO-K1 cells, [3H]-Ketanserin 0.5 nM
T2 construct: expressed in transfected cells; host or cells: CHO-K1
Method: as §1
Human recombinant CHO-K1 cells can be used. Displacement experiments are performed by incubating the cells in 50 mM Tris-HCL, pH 7.7 in the presence of [^3H]-Ketanserin (0.5 nM) at 25° C. for 60 min. Non specific binding was determined in the presence of 1 μM Mianserin.
The test compounds, along with the positive control compound ketanserin are tested over 10-log unit concentrations for their ability to compete for [^3H]-Ketanserin (Saucier C and Albert P R. J. Neurochem. 68:1998, 1997. Bonhaus D W et al., Br J Pharmacol. 115:622, 1995). The assays are terminated by rapid vacuum filtration over glass fiber filters. The radioactivity is counted on a β-counter, and the data are analyzed by a nonlinear, iterative, curve-fitting computer program. Where presented, IC50 values are determined by a non-linear, least squares regression analysis using Data Analysis Toolboxä (MDL Information Systems, San Leandro, Calif., USA). Where inhibition constants (Ki) are presented, the Ki values are calculated using the equation of Cheng and Prusoff (Cheng, Y., Prusoff, W. H., Biochem. Pharmacol. 22:3099-3108, 1973) using the observed IC50 of the tested compound, the concentration of radioligand employed in the assay, and the historical values for the Ki of the ligand).

T2 sequence (P28223 whole entry): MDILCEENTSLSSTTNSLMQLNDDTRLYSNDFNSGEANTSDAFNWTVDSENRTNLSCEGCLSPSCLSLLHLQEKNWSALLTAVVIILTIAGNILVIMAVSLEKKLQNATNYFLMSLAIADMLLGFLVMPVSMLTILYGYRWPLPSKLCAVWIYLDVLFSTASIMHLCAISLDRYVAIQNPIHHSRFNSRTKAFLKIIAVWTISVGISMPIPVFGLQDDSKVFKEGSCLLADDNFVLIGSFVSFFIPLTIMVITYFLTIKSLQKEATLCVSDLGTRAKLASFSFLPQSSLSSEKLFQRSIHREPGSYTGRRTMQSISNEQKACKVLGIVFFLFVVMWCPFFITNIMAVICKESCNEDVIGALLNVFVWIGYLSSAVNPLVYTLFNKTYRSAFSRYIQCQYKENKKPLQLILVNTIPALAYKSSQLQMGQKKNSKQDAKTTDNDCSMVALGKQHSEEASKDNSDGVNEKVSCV

Ki (5-HT1A receptor): 808 nM
Ki (5-HT2A receptor): 207 nM
SMILES: O=c1[nH]c2ccc(OS(=O)(=O)O)cc2n1CCN1CCN(c2cccc(C(F)(F)F)c2)CC1 [I(b), {2-oxo-3-{2-[4-(3-trifluoromethyl-phenyl)-piperazin-1-yl]-ethyl}-2,3-dihydro-1H-benzimidazol-5-yl}mono sulfuric acid ester]
